{"source": "patent US20230117777A1", "about": "“METHYLATION OF MCL-1 COMPOUNDS” (Amgen Inc., priority 2020, published 2023)", "assay": "Moisture sorption profile (DVS)", "format": "physicochemical", "details": "by 95% RH; FIG. 6", "description": "Moisture Sorption: Moisture sorption data was collected using a Surface Measurement Systems DVSAdvantage instrument. Equilibrium criteria were set at ±0.001% weight change in 10 minutes with a maximum equilibrium time of 360 minutes."}
{"smiles": "CO[C@]1(CN2CCN3CCCC[C@@H]3C2)/C=C/C[C@H](C)[C@@H](C)S(=O)(=O)NC(=O)c2ccc3c(c2)N(C[C@@H]2CC[C@H]21)C[C@@]1(CCCc2cc(Cl)ccc21)CO3", "note": "[crystalline hydrate form of compound A]", "values": [{"measurement": "weight gain (moisture sorption profile)", "value": 3.3, "unit": "%"}]}
